In general, melting point refers to the temperature, or range, at which the solid turns liquid.

With `Cc1cnn2c(-c3cccc(-c4ccccc4C#N)c3)cnc2c1`, the melting point fell in the range of 164 to 166 °C.

Values taken from patent US7226922B2 (dated 2007).
